# Laboratory results as given in PubChem BioAssay AID330 (DTP/NCI, 2004).
# Values joined by “and” are separate entries in the source; they are usually repeats but may differ in a detail not shown here. Identical values can stand only once. Toxic doses and inconclusive results are not listed. Numbered stars: 1 amine (or outer) side, 2 acyl side, 3 side chain; on linkers, the order of the positions; unused ones are H or OH. Bridge positions count the residues as written; N and C are the ends. Square brackets hold non-standard residues; d marks the D form. Peptide text beside a SMILES is read from it. I, II: the chains in the order shown. Actinocin(9to1) = Cc1c2oc3c(C)ccc(C(=O)[*:1])c3nc-2c(C(=O)[*:2])c(N)c1=O; NMeV = CN[CH](C(=O)O)C(C)C; Sar = CNCC(=O)O
# Tested on: P388 leukemia ip, CD2F1 mice, survival T/C
# Assay: NCI In Vivo Anticancer Drug Screen. Data for tumor model P388 Leukemia (intraperitoneal) in CD2F1 (CDF1) mice
# Conditions: endpoint: median survival time, higher = longer survival
# Method in brief: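 Mice carrying the transplanted tumor received test compound or vehicle. Survival was recorded in each group, and the value is the treated-group measurement divided by that of the vehicle-treated control group.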
# [1] = dose: 100.0 mg/kg/injection, schedule: Q04DX003 (ip), vehicle: saline with Tween-80
# [2] = dose: 200.0 mg/kg/injection, schedule: Q04DX003 (ip), vehicle: saline with Tween-80
# [3] = dose: 400.0 mg/kg/injection, schedule: Q04DX003 (ip), vehicle: saline with Tween-80
# [4] = dose: 50.0 mg/kg/injection, schedule: Q01DX005 (ip), vehicle: Klucel (hydroxypropylcellulose) (HPC)
# [5] = dose: 100.0 mg/kg/injection, schedule: Q01DX005 (ip), vehicle: Klucel (hydroxypropylcellulose) (HPC)
# [6] = dose: 200.0 mg/kg/injection, schedule: Q01DX005 (ip), vehicle: Klucel (hydroxypropylcellulose) (HPC)
# [7] = dose: 50.0 mg/kg/injection, schedule: Q01DX009 (ip), vehicle: Klucel (hydroxypropylcellulose) (HPC)
# [8] = dose: 100.0 mg/kg/injection, schedule: Q01DX009 (ip), vehicle: Klucel (hydroxypropylcellulose) (HPC)
# [9] = dose: 200.0 mg/kg/injection, schedule: Q01DX009 (ip), vehicle: Klucel (hydroxypropylcellulose) (HPC)
# [10] = dose: 100.0 mg/kg/injection, schedule: Q01DX009 (ip), vehicle: saline
# [11] = dose: 200.0 mg/kg/injection, schedule: Q01DX009 (ip), vehicle: saline
# [12] = dose: 60.0 mg/kg/injection, schedule: Q01DX005 (ip), vehicle: saline with Tween-80
# [13] = dose: 120.0 mg/kg/injection, schedule: Q01DX005 (ip), vehicle: saline with Tween-80
smiles,measurement,setting,value
O=C(Nc1cccc2ccccc12)[C@H]1C[C@H]2C=C[C@@H]1C2,T/C,[1],95 % of control
same,T/C,[2],90 % of control
same,T/C,[3],113 % of control
CC(=O)C1CCC2C3CC4OCC5(CCC(O)CC45Br)C3CCC12C (stereo not drawn),T/C,[4],104 % of control
same,T/C,[5],98 % of control
same,T/C,[6],101 % of control
CCCCCCCCCCCCCCCC(=O)Nc1ncc([N+](=O)[O-])s1,T/C,[7],86 % of control
same,T/C,[8],96 % of control
same,T/C,[9],96 % of control
CCN1C2OC3CCC2(C)C2C(OC)C4(O)C1C32C1CC2C(OC)CC4(O)C1C2O (stereo not drawn),T/C,"dose: 0.94 mg/kg/injection, schedule: Q01DX005 (ip), vehicle: saline + alcohol",106 % of control
same,T/C,"dose: 1.88 mg/kg/injection, schedule: Q01DX005 (ip), vehicle: saline + alcohol",102 % of control
same,T/C,"dose: 3.75 mg/kg/injection, schedule: Q01DX005 (ip), vehicle: saline + alcohol",108 % of control
same,T/C,"dose: 7.5 mg/kg/injection, schedule: Q01DX005 (ip), vehicle: saline + alcohol",102 % of control
CCCCn1c(=S)sc2ccccc21,T/C,"dose: 50.0 mg/kg/injection, schedule: Q04DX003 (ip), vehicle: saline with Tween-80",98 % of control
same,T/C,[1],100 % of control
same,T/C,[2],104 % of control
same,T/C,[3],104 % of control
CNc1cn(C2OC(CO)C(O)C2O)c(=O)[nH]c1=O (stereo not drawn),T/C,"dose: 50.0 mg/kg/injection, schedule: Q01DX005 (ip), vehicle: saline",122 % of control
same,T/C,"dose: 100.0 mg/kg/injection, schedule: Q01DX005 (ip), vehicle: saline",110 % of control
same,T/C,"dose: 200.0 mg/kg/injection, schedule: Q01DX005 (ip), vehicle: saline",105 % of control
CC(C)(C(=O)O)n1c(-c2ccccc2)c(-c2ccccc2)oc1=O,T/C,"dose: 8.75 mg/kg/injection, schedule: Q01DX005 (ip), vehicle: Klucel (hydroxypropylcellulose) (HPC)",106 % of control
same,T/C,"dose: 17.5 mg/kg/injection, schedule: Q01DX005 (ip), vehicle: Klucel (hydroxypropylcellulose) (HPC)",106 % of control
same,T/C,"dose: 35.0 mg/kg/injection, schedule: Q01DX005 (ip), vehicle: Klucel (hydroxypropylcellulose) (HPC)",106 % of control
CC(=O)Oc1c(N)c(C)cc(C)c1F,T/C,"dose: 1.56 mg/kg/injection, schedule: Q01DX009 (ip), vehicle: saline with Tween-80",101 % of control
same,T/C,"dose: 3.12 mg/kg/injection, schedule: Q01DX009 (ip), vehicle: saline with Tween-80",93 % of control
same,T/C,"dose: 6.25 mg/kg/injection, schedule: Q01DX009 (ip), vehicle: saline with Tween-80",100 % of control
same,T/C,"dose: 12.5 mg/kg/injection, schedule: Q01DX009 (ip), vehicle: saline with Tween-80",96 % of control
NS(=O)(=O)c1cccc(NC(=S)Nc2ccccc2)c1,T/C,"dose: 6.25 mg/kg/injection, schedule: Q01DX009 (ip), vehicle: saline",103 % of control (2×) and 108 % of control
same,T/C,"dose: 12.5 mg/kg/injection, schedule: Q01DX009 (ip), vehicle: saline",101 % of control and 106 % of control
same,T/C,"dose: 25.0 mg/kg/injection, schedule: Q01DX009 (ip), vehicle: saline",99 % of control and 109 % of control and 94 % of control
same,T/C,[10],99 % of control and 92 % of control
same,T/C,[11],100 % of control and 110 % of control
"Cc1c2oc3c(C)ccc(C(=O)NC4C(=O)NC(C(C)C)C(=O)N(C)CC(=O)N(C)CC(=O)N(C)C(C(C)C)C(=O)OC4C)c3nc-2c(C(=O)NC2C(=O)NC(C(C)C)C(=O)N(C)CC(=O)N(C)CC(=O)N(C)C(C(C)C)C(=O)OC2C)c(N)c1=O (stereo not drawn) (I: TV[Sar][Sar][NMeV] / II: TV[Sar][Sar][NMeV]; ester I:1-I:C, II:1-II:C; linker I:N-II:N via Actinocin(9to1); configuration not given here)",T/C,"dose: 0.1 mg/kg/injection, schedule: Q01DX009 (ip), vehicle: water",164 % of control
same,T/C,"dose: 0.18 mg/kg/injection, schedule: Q01DX009 (ip), vehicle: other",166 % of control
same,T/C,"dose: 0.2 mg/kg/injection, schedule: Q01DX009 (ip), vehicle: water",166 % of control
same,T/C,"dose: 0.27 mg/kg/injection, schedule: Q01DX009 (ip), vehicle: other",202 % of control
same,T/C,"dose: 0.4 mg/kg/injection, schedule: Q01DX009 (ip), vehicle: other",200 % of control
same,T/C,"dose: 0.4 mg/kg/injection, schedule: Q01DX009 (ip), vehicle: water",205 % of control
same,T/C,"dose: 0.6 mg/kg/injection, schedule: Q01DX009 (ip), vehicle: other",270 % of control
same,T/C,"dose: 0.8 mg/kg/injection, schedule: Q01DX009 (ip), vehicle: water",156 % of control
same,T/C,"dose: 1.6 mg/kg/injection, schedule: Q01DX009 (ip), vehicle: water",88 % of control
CCN(CC)CCCC(CO)Nc1ccnc2cc(Cl)ccc12 (stereo not drawn),T/C,[7],104 % of control and 100 % of control
same,T/C,[8],96 % of control and 98 % of control
CC(C)C12CC(COCc3ccccc3)OC1=NC(=O)NC2=O (stereo not drawn),T/C,[7],112 % of control
same,T/C,[8],103 % of control
same,T/C,[9],94 % of control
c1cc2n3c1CCc1ccc(n1CC3)CC2,T/C,"dose: 8.0 mg/kg/injection, schedule: Q01DX009 (ip), vehicle: saline with Tween-80",100 % of control
same,T/C,"dose: 16.0 mg/kg/injection, schedule: Q01DX009 (ip), vehicle: saline with Tween-80",100 % of control
same,T/C,"dose: 32.0 mg/kg/injection, schedule: Q01DX009 (ip), vehicle: saline with Tween-80",100 % of control
CCCCOc1ccc(Nc2c(C(=O)O)cnc3cc4c(cc23)OCO4)cc1,T/C,"dose: 60.0 mg/kg/injection, schedule: Q01DX005 (ip), vehicle: Klucel (hydroxypropylcellulose) (HPC)",100 % of control
same,T/C,"dose: 120.0 mg/kg/injection, schedule: Q01DX005 (ip), vehicle: Klucel (hydroxypropylcellulose) (HPC)",91 % of control
same,T/C,"dose: 240.0 mg/kg/injection, schedule: Q01DX005 (ip), vehicle: Klucel (hydroxypropylcellulose) (HPC)",97 % of control
OCC(O)C(O)C1[O][Sb][O]C1CO (stereo not drawn),T/C,"dose: 50.0 mg/kg/injection, schedule: Q01DX005 (ip), vehicle: saline with Tween-80",100 % of control and 101 % of control
same,T/C,"dose: 100.0 mg/kg/injection, schedule: Q01DX005 (ip), vehicle: saline with Tween-80",96 % of control and 100 % of control and 104 % of control
same,T/C,"dose: 200.0 mg/kg/injection, schedule: Q01DX005 (ip), vehicle: saline with Tween-80",100 % of control and 96 % of control and 104 % of control
COC(=O)c1ccc(/C=C/C#N)cc1,T/C,"dose: 50.0 mg/kg/injection, schedule: Q01DX009 (ip), vehicle: saline",100 % of control
same,T/C,[10],102 % of control
same,T/C,[11],97 % of control
Cc1ccc(NCC2(/N=C/c3ccccc3)OC(CO)C(O)C2O)cc1 (stereo not drawn),T/C,"dose: 266.0 mg/kg/injection, schedule: Q01DX009 (ip), vehicle: Klucel (hydroxypropylcellulose) (HPC)",150 % of control and 157 % of control
same,T/C,"dose: 400.0 mg/kg/injection, schedule: Q01DX009 (ip), vehicle: Klucel (hydroxypropylcellulose) (HPC)",170 % of control and 176 % of control
CN(C)CCO,T/C,"dose: 60.0 mg/kg/injection, schedule: Q01DX005 (ip), vehicle: saline",104 % of control
same,T/C,"dose: 120.0 mg/kg/injection, schedule: Q01DX005 (ip), vehicle: saline",100 % of control
same,T/C,"dose: 240.0 mg/kg/injection, schedule: Q01DX005 (ip), vehicle: saline",118 % of control
COc1ccc(S(=O)c2coc3ccccc3c2=O)cc1 (stereo not drawn),T/C,[12],99 % of control
same,T/C,[13],100 % of control
same,T/C,"dose: 240.0 mg/kg/injection, schedule: Q01DX005 (ip), vehicle: saline with Tween-80",100 % of control
COc1cc2c(cc1OC)C(=O)Cc1ccc(OC)c(O)c1CN(C)CC2,T/C,"dose: 2.25 mg/kg/injection, schedule: Q01DX009 (ip), vehicle: Klucel (hydroxypropylcellulose) (HPC)",111 % of control
same,T/C,"dose: 4.5 mg/kg/injection, schedule: Q01DX009 (ip), vehicle: Klucel (hydroxypropylcellulose) (HPC)",108 % of control
same,T/C,"dose: 9.0 mg/kg/injection, schedule: Q01DX009 (ip), vehicle: Klucel (hydroxypropylcellulose) (HPC)",118 % of control
same,T/C,"dose: 18.0 mg/kg/injection, schedule: Q01DX009 (ip), vehicle: Klucel (hydroxypropylcellulose) (HPC)",108 % of control
c1ccc(C2(c3ccc(C4(c5ccccc5)Oc5ccccc5S4)[nH]3)Oc3ccccc3S2)cc1 (stereo not drawn),T/C,[12],96 % of control
same,T/C,[13],107 % of control
Cc1ccc(S(=O)(=O)C(C#N)CCC(=O)c2ccc(Cl)cc2)cc1 (stereo not drawn),T/C,[4],107 % of control
same,T/C,[5],106 % of control
same,T/C,[6],105 % of control
Fc1ccc(NC(=S)SCc2ccc(Cl)c(Cl)c2)cc1,T/C,"dose: 50.0 mg/kg/injection, schedule: Q01DX009 (ip), vehicle: suspension in saline",90 % of control
same,T/C,"dose: 100.0 mg/kg/injection, schedule: Q01DX009 (ip), vehicle: suspension in saline",90 % of control
same,T/C,"dose: 200.0 mg/kg/injection, schedule: Q01DX009 (ip), vehicle: suspension in saline",102 % of control
